According to US20050250715A1, “Remedy” (priority 2002, published 2005):

System: NGF
Assay: Enhancing activity for NGF production in L-M cells (NGF in culture medium by enzyme immunoassay)
Assay type: cell-based, murine
Details: 20 hours; for Amount of NGF Production (%): control = 100%
Method: (2) The enhancing activity for NGF production of the compound a was assayed. L-M cells (ATCC CCL-1.2) from murine fibroblasts were suspended in an M199 medium (manufactured by Bio Whittaker) containing 0.5% bactopeptone (manufactured by Gibco) so as to have a concentration of 1.5×10^5 cells/mL. The suspension was put in a 96 well plate in an amount of 0.1 mL each well, and the cells were aseptically cultured. After culturing the cells for 3 days, the medium was removed therefrom, and exchanged with an M199 medium containing 0.5% bovine serum albumin (manufactured by Sigma). The compound a was added thereto, and the cells were cultured for 20 hours. After the termination of the culture, the concentration of NGF in the culture medium was assayed by an enzyme immunoassay method (NGF Emax Immuno Assay System, manufactured by Promega). The experiment was carried out twice, and an average value was taken. […] The amount of NGF production of the control was 0.739 ng/mL. As to the control, the concentration in the culture medium was determined in the same manner except that the compound a was not added. It is the same as that of the following examples.

CC(=O)OC1C(OC2C(O)COC(OC3C(O)C(C)(C)CC4C5=CCC6C7(C)CCC(OC8OC(C(=O)O)C(O)C(O)C8OC8OC(CO)C(O)C(O)C8OC8OC(CO)C(O)C(O)C8O)C(C)(CO)C7CCC6(C)C5(C)CCC43C)C2O)OCC(O)C1O [Compound a, 3-O-[β-D-glucopyranosyl(1→2)-β-D-galactopyranosyl-(1→2)-β-D-glucuronopyranosyl]-22-O-[2-O-acetyl-β-D-xylopyranosyl(1→3)-α-L-arabinopyranosyl]soyasapogenol A]
enhancing activity for NGF production (result in words): has an enhancing activity for NGF production | Amount of NGF Production (%) (Concentration of Sample 0.5 mM): 228.3% | Amount of NGF Production (%) (Concentration of Sample 1.0 mM): 231.6% | Amount of NGF Production (%) (Concentration of Sample 2 mM): 212.6%

CC(=O)OC1C(O)COC(OC2C(O)COC(OC3C(O)C(C)(C)CC4C5=CCC6C7(C)CCC(OC8OC(C(=O)O)C(O)C(O)C8OC8OC(CO)C(O)C(O)C8OC8OC(CO)C(O)C(O)C8O)C(C)(CO)C7CCC6(C)C5(C)CCC43C)C2O)C1O [Compound b, 3-O-[β-D-glucopyranosyl(1→2)-β-D-galactopyranosyl-(1→2)-β-D-glucuronopyranosyl]-22-O-[3-O-acetyl-β-D-xylopyranosyl(1→3)-α-L-arabinopyranosyl]soyasapogenol A]
enhancing activity for NGF production (result in words): has an enhancing activity for NGF production | Amount of NGF Production (%) (Concentration of Sample 0.5 mM): 220.9% | Amount of NGF Production (%) (Concentration of Sample 1.0 mM): 251.2% | Amount of NGF Production (%) (Concentration of Sample 2 mM): 272.3%

CC(=O)OC1COC(OC2C(O)COC(OC3C(O)C(C)(C)CC4C5=CCC6C7(C)CCC(OC8OC(C(=O)O)C(O)C(O)C8OC8OC(CO)C(O)C(O)C8OC8OC(CO)C(O)C(O)C8O)C(C)(CO)C7CCC6(C)C5(C)CCC43C)C2O)C(O)C1O [Compound c, 3-O-[β-D-glucopyranosyl(1→2)-β-D-galactopyranosyl-(1→2)-β-D-glucuronopyranosyl]-22-O-[4-O-acetyl-β-D-xylopyranosyl(1→3)-α-L-arabinopyranosyl]soyasapogenol A]
enhancing activity for NGF production (result in words): has an enhancing activity for NGF production | Amount of NGF Production (%) (Concentration of Sample 0.5 mM): 255.1% | Amount of NGF Production (%) (Concentration of Sample 1.0 mM): 289.2% | Amount of NGF Production (%) (Concentration of Sample 2 mM): 323.7%

CC(=O)OC1C(O)COC(OC2C(O)COC(OC3C(O)C(C)(C)CC4C5=CCC6C7(C)CCC(OC8OC(C(=O)O)C(O)C(O)C8OC8OC(CO)C(O)C(O)C8OC8OC(CO)C(O)C(O)C8O)C(C)(CO)C7CCC6(C)C5(C)CCC43C)C2O)C1OC(C)=O [Compound d, 3-O-[β-D-glucopyranosyl(1→2)-β-D-galactopyranosyl-(1→2)-β-D-glucuronopyranosyl]-22-O-[2,3-di-O-acetyl-β-D-xylopyranosyl(1→3)-α-L-arabinopyranosyl]soyasapogenol A]
enhancing activity for NGF production (result in words): has an enhancing activity for NGF production | Amount of NGF Production (%) (Concentration of Sample 0.5 mM): 255.8% | Amount of NGF Production (%) (Concentration of Sample 1.0 mM): 281.1% | Amount of NGF Production (%) (Concentration of Sample 2 mM): 276.5%

CC(=O)OC1COC(OC2C(O)COC(OC3C(O)C(C)(C)CC4C5=CCC6C7(C)CCC(OC8OC(C(=O)O)C(O)C(O)C8OC8OC(CO)C(O)C(O)C8OC8OC(CO)C(O)C(O)C8O)C(C)(CO)C7CCC6(C)C5(C)CCC43C)C2O)C(OC(C)=O)C1O [Compound e, 3-O-[β-D-glucopyranosyl(1→2)-β-D-galactopyranosyl-(1→2)-β-D-glucuronopyranosyl]-22-O-[2,4-di-O-acetyl-β-D-xylopyranosyl(1→3)-α-L-arabinopyranosyl]soyasapogenol A]
enhancing activity for NGF production (result in words): has an enhancing activity for NGF production | Amount of NGF Production (%) (Concentration of Sample 0.5 mM): 214.0% | Amount of NGF Production (%) (Concentration of Sample 1.0 mM): 233.7% | Amount of NGF Production (%) (Concentration of Sample 2 mM): 230.1%

CC(=O)OC1COC(OC2C(O)COC(OC3C(O)C(C)(C)CC4C5=CCC6C7(C)CCC(OC8OC(C(=O)O)C(O)C(O)C8OC8OC(CO)C(O)C(O)C8OC8OC(CO)C(O)C(O)C8O)C(C)(CO)C7CCC6(C)C5(C)CCC43C)C2O)C(O)C1OC(C)=O [Compound f, 3-O-[β-D-glucopyranosyl(1→2)-β-D-galactopyranosyl-(1→2)-β-D-glucuronopyranosyl]-22-O-[3,4-di-O-acetyl-β-D-xylopyranosyl(1→3)-α-L-arabinopyranosyl]soyasapogenol A]
enhancing activity for NGF production (result in words): has an enhancing activity for NGF production | Amount of NGF Production (%) (Concentration of Sample 0.5 mM): 204.5% | Amount of NGF Production (%) (Concentration of Sample 1.0 mM): 208.8% | Amount of NGF Production (%) (Concentration of Sample 2 mM): 218.5%

CC(=O)OCC1OC(OC2C(O)COC(OC3C(O)C(C)(C)CC4C5=CCC6C7(C)CCC(OC8OC(C(=O)O)C(O)C(O)C8OC8OC(CO)C(O)C(O)C8OC8OC(CO)C(O)C(O)C8O)C(C)(CO)C7CCC6(C)C5(C)CCC43C)C2O)C(O)C(OC(C)=O)C1OC(C)=O [Compound g, 3-O-[β-D-glucopyranosyl(1→2)-β-D-galactopyranosyl-(1→2)-β-D-glucuronopyranosyl]-22-O-[3,4,6-tri-O-acetyl-β-D-glucopyranosyl(1→3)-α-L-arabinopyranosyl]soyasapogenol A]
enhancing activity for NGF production (result in words): has an enhancing activity for NGF production | Amount of NGF Production (%) (Concentration of Sample 0.5 mM): 295.4% | Amount of NGF Production (%) (Concentration of Sample 1.0 mM): 277.2% | Amount of NGF Production (%) (Concentration of Sample 2 mM): 247.6%

CC(=O)OCC1OC(OC2C(O)COC(OC3C(O)C(C)(C)CC4C5=CCC6C7(C)CCC(OC8OC(C(=O)O)C(O)C(O)C8OC8OC(CO)C(O)C(O)C8OC8OC(CO)C(O)C(O)C8O)C(C)(CO)C7CCC6(C)C5(C)CCC43C)C2O)C(OC(C)=O)C(OC(C)=O)C1OC(C)=O [Compound h, 3-O-[β-D-glucopyranosyl(1→2)-β-D-galactopyranosyl-(1→2)-β-D-glucuronopyranosyl]-22-O-[2,3,4,6-tetra-O-acetyl-β-D-glucopyranosyl(1→3)-α-L-arabinopyranosyl]soyasapogenol A]
enhancing activity for NGF production (result in words): has enhancing activity for NGF production | Amount of NGF Production (%) (Concentration of Sample 0.5 mM): 273.3% | Amount of NGF Production (%) (Concentration of Sample 1.0 mM): 301.7% | Amount of NGF Production (%) (Concentration of Sample 2 mM): 307.2%

CC1(C)C[C@@H](O)[C@]2(C)CC[C@]3(C)C(=CC[C@@H]4[C@@]5(C)CC[C@H](O[C@@H]6O[C@H](C(=O)O)[C@@H](O)[C@H](O)[C@H]6O[C@@H]6O[C@H](CO)[C@H](O)[C@H](O)[C@H]6O[C@@H]6O[C@H](CO)[C@@H](O)[C@H](O)[C@H]6O)[C@@](C)(CO)[C@@H]5CC[C@]43C)[C@@H]2C1 [Compound i, 3-O-[β-D-glucopyranosyl(1→2)-β-D-galactopyranosyl-(1→2)-β-D-glucuronopyranosyl]-soyasapogenol B]
enhancing activity for NGF production (result in words): has enhancing activity for NGF production | Amount of NGF Production (%) (Concentration of Sample 1.0 mM): 116.8% | Amount of NGF Production (%) (Concentration of Sample 2 mM): 169.4%

C[C@@H]1O[C@@H](O[C@H]2[C@H](O[C@H]3[C@H](O[C@H]4CC[C@@]5(C)[C@@H](CC[C@]6(C)[C@@H]5CC=C5[C@@H]7CC(C)(C)C[C@@H](O)[C@]7(C)CC[C@]56C)[C@@]4(C)CO)O[C@H](C(=O)O)[C@@H](O)[C@@H]3O)O[C@H](CO)[C@H](O)[C@@H]2O)[C@H](O)[C@H](O)[C@H]1O [Compound j, 3-O-[α-L-rhamnopyranosyl(1→2)-β-D-galactopyranosyl-(1→2)-β-D-glucuronopyranosyl]-soyasapogenol B]
enhancing activity for NGF production (result in words): has enhancing activity for NGF production | Amount of NGF Production (%) (Concentration of Sample 0.5 mM): 138.2% | Amount of NGF Production (%) (Concentration of Sample 1.0 mM): 176.4% | Amount of NGF Production (%) (Concentration of Sample 2 mM): 212.5%
